Values quoted from earlier work as cited in patent US20100029602A1, “LOW-DOSE MOMETASONE FORMULATIONS” (Perrigo Israel Pharmaceuticals Ltd., priority 2007, published 2010).

For `C[C@@H]1C[C@H]2[C@@H]3CCC4=CC(=O)C=C[C@]4(C)[C@@]3(Cl)[C@@H](O)C[C@]2(C)[C@@]1(OC(=O)c1ccco1)C(=O)CCl` [Mometasone furoate], the “solubility in ethyl alcohol” value (ethyl alcohol) is listed as “moderately soluble”, the solubility in octanol (octanol) is listed as “slightly soluble” and the solubility in water (water) is listed as “practically insoluble”.
